Test results as given in patent publication US10336693B2 (priority 2015, dated 2019).

Key:
[1] = system: neuraminidase (NA) of Influenza A/Korea/2785/2009 (H275Y mutation); assay type: biochemical, Influenza A virus
[2] = system: virus showing oseltamivir resistance due to the H275Y mutation; assay type: binding, influenza virus
[3] = system: neuraminidase site of oseltamivir-resistant virus (mutant type); set-up: species or system influenza virus

| Compound | inhibition of NA activity of mutant-type virus compared with wild-type virus [1] | affinity for H275Y oseltamivir-resistant virus relative to oseltamivir sensitive virus [2] | affinity for mutant type relative to wild type [3] |
| --- | --- | --- | --- |
| CCC(CC)O[C@@H]1C=C(C(=O)OCCCCCCN)C[C@H](N)[C@H]1NC(C)=O [oseltamivir hexylamine] | inhibited the NA activity of the mutant-type virus (H275Y mutation) more significantly than the NA activity of the wild-type virus | about 1000 fold |  |
| CCC(CC)O[C@@H]1C=C(C(=O)OCCCCCCS)C[C@H](N)[C@H]1NC(C)=O [oseltamivir hexylthiol] | inhibited the NA activity of the mutant-type virus (H275Y mutation) more significantly than the NA activity of the wild-type virus | about 1000 fold | about 250 fold |
